In patent US8952024B2, “Herbicidal pyrimidone derivatives” (E I du Pont de Nemours and Company, priority 2009, dated 2015):

Legend:
Format in all cases: in vivo
[1] = system: barnyardgrass (Echinochloa crus-galli); experiment: Test A pre-/postemergence plant response
Procedure, shortened: (§1)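 Greenhouse pots of loam/sand received directed preemergence soil sprays or postemergence sprays (plants 2–10 cm, 1–2 leaf stage), compounds formulated in non-phytotoxic solvent with surfactant. Injury was rated visually versus untreated controls after about ten days on a 0 (no effect) to 100 (complete control) scale.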

[2] = system: corn (Zea mays); experiment: Test A pre-/postemergence plant response
Procedure, shortened: as §1

[3] = system: giant foxtail (Setaria faberii); experiment: Test A pre-/postemergence plant response
Procedure, shortened: as §1

[4] = system: pigweed (Amaranthus retroflexus); experiment: Test A pre-/postemergence plant response
Procedure, shortened: as §1

[5] = system: barnyardgrass (Echinochloa crus-galli); experiment: Test B flooded paddy test; settings: for Plant response rating, Flood, Barnyardgrass: 250 g ai/ha, flooded paddy test, visual rating on 0 to 100 scale (0 no effect, 100 complete control) after 13 to 15 days; for Plant response rating, Barnyardgrass: Flood (flooded paddy test), 13 to 15 days; for Barnyardgrass plant response rating: Flood, 31 g ai/ha, scale 0 to 100 (0 no effect, 100 complete control)
Procedure, shortened: (§2)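 2-leaf seedlings; pots flooded 3 cm over soil at treatment; cpd dosed into floodwater, depth kept constant. Greenhouse 13–15 d. Visual rating vs untreated controls, 0 = no effect, 100 = complete control.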

[6] = system: ducksalad (Heteranthera limosa); experiment: Test B flooded paddy test; settings: for Plant response rating, Flood, Ducksalad: 250 g ai/ha, flooded paddy test, visual rating on 0 to 100 scale (0 no effect, 100 complete control) after 13 to 15 days; for Plant response rating, Ducksalad: Flood (flooded paddy test), 13 to 15 days; for Ducksalad plant response rating: Flood, 31 g ai/ha, scale 0 to 100 (0 no effect, 100 complete control)
Procedure, shortened: as §2

[7] = system: rice (Oryza sativa); experiment: Test B flooded paddy test; settings: for Plant response rating, Rice: Flood (flooded paddy test), 13 to 15 days; for Rice plant response rating: Flood, 31 g ai/ha, scale 0 to 100 (0 no effect, 100 complete control); for Plant response rating, Flood, Rice: 250 g ai/ha, flooded paddy test, visual rating on 0 to 100 scale (0 no effect, 100 complete control) after 13 to 15 days
Procedure, shortened: as §2

[8] = system: umbrella sedge (Cyperus difformis); experiment: Test B flooded paddy test; settings: for Plant response rating, Flood, Sedge, Umbrella: 250 g ai/ha, flooded paddy test, visual rating on 0 to 100 scale (0 no effect, 100 complete control) after 13 to 15 days; for Plant response rating, Sedge, Umbrella: Flood (flooded paddy test), 13 to 15 days; for Sedge, Umbrella plant response rating: Flood, 31 g ai/ha, scale 0 to 100 (0 no effect, 100 complete control)
Procedure, shortened: as §2

[9] = Postemergence, 125 g ai/ha, 0 to 100 scale where 0 is no effect and 100 is complete control
[10] = Postemergence, 500 g ai/ha, 0 to 100 scale, 0 = no effect, 100 = complete control, approx. ten days
[11] = Preemergence, 125 g ai/ha, 0 to 100 scale, 0 = no effect, 100 = complete control
[12] = Preemergence, 500 g ai/ha, visual injury, 0 to 100 scale (0 no effect, 100 complete control), approx. ten days
[13] = 62 g ai/ha, scale of 0 to 100 where 0 is no effect and 100 is complete control
[14] = 125 g ai/ha, scale 0 to 100, 0 is no effect, 100 is complete control

Row | SMILES | Plant response rating, Barnyardgrass [1, 9] | Plant response rating, Barnyardgrass [1, 10] | Plant response rating, Barnyardgrass [1, 11] | Plant response rating, Barnyardgrass [1, 12] | Plant response rating, Corn [2, 9] | Plant response rating, Corn [2, 10] | Plant response rating, Corn [2, 11] | Plant response rating, Corn [2, 12] | Plant response rating, Foxtail, Giant [3, 9] | Plant response rating, Foxtail, Giant [3, 10] | Plant response rating, Foxtail, Giant [3, 12] | Plant response rating, Pigweed [4, 9] | Plant response rating, Pigweed [4, 10] | Plant response rating, Pigweed [4, 11] | Plant response rating, Pigweed [4, 12] | Plant response rating, Flood, Barnyardgrass [5] | Plant response rating, Barnyardgrass [5, 13] | Plant response rating, Flood, Ducksalad [6] | Plant response rating, Ducksalad [6, 13] | Plant response rating, Rice [7, 13] | also measured
1 | CCCn1c(-c2cccc(OC)c2)ncc(C(=O)C2=C(O)CCCC2=O)c1=O [Compound 100] | 80 | 90 | 40 | 90 | 0 | 0 | 0 | 0 | 80 | 90 | 80 | 90 | 100 | 80 | 100 | 75 | 45 | 85 | 75 | 30 | Plant response rating, Foxtail, Giant [3, 11]: 50; Plant response rating, Barnyardgrass [5, 14]: 60; Barnyardgrass plant response rating [5]: 20; Plant response rating, Ducksalad [6, 14]: 85; Ducksalad plant response rating [6]: 35; Plant response rating, Rice [7, 14]: 35; Rice plant response rating [7]: 0; Plant response rating, Flood, Sedge, Umbrella [8]: 85; Plant response rating, Sedge, Umbrella [8, 13]: 75; Plant response rating, Sedge, Umbrella [8, 14]: 80; Sedge, Umbrella plant response rating [8]: 40
2 | COCCn1c(-c2cccs2)ncc(C(=O)C2=C(O)CCCC2=O)c1=O [Compound 108] | 90 | 90 | 30 | 90 | 0 | 40 | 0 | 0 | 60 | 90 | 40 | 100 | 100 | 90 | 100 | 30 | 0 | 70 | 50 | 0 | Plant response rating, Foxtail, Giant [3, 11]: 30; Plant response rating, Barnyardgrass [5, 14]: 15; Barnyardgrass plant response rating [5]: 0; Plant response rating, Ducksalad [6, 14]: 60; Ducksalad plant response rating [6]: 40; Plant response rating, Flood, Rice [7]: 10; Plant response rating, Rice [7, 14]: 0; Rice plant response rating [7]: 0; Plant response rating, Flood, Sedge, Umbrella [8]: 95; Plant response rating, Sedge, Umbrella [8, 13]: 40; Plant response rating, Sedge, Umbrella [8, 14]: 60; Sedge, Umbrella plant response rating [8]: 0
3 | O=C1CCCC(O)=C1C(=O)c1cnc(-c2cccs2)n(CC2CCCO2)c1=O (stereo not drawn) [Compound 109] | 80 | 90 | 10 | 70 | 0 | 30 | 0 | 0 | 70 | 90 | 30 | 100 | 100 | 90 | 100 | 20 | 0 | 100 | 60 | 0 | Plant response rating, Foxtail, Giant [3, 11]: 0; Plant response rating, Barnyardgrass [5, 14]: 20; Barnyardgrass plant response rating [5]: 0; Plant response rating, Ducksalad [6, 14]: 65; Ducksalad plant response rating [6]: 50; Plant response rating, Flood, Rice [7]: 25; Plant response rating, Rice [7, 14]: 20; Rice plant response rating [7]: 0; Plant response rating, Flood, Sedge, Umbrella [8]: 80; Plant response rating, Sedge, Umbrella [8, 13]: 60; Plant response rating, Sedge, Umbrella [8, 14]: 75; Sedge, Umbrella plant response rating [8]: 50
4 | COCCn1c(-c2ccco2)ncc(C(=O)C2=C(O)CCCC2=O)c1=O [Compound 111] | 90 | 90 | 30 | 90 | 0 | 30 | 0 | 0 | 60 | 90 | 70 | 100 | 100 | 100 | 100 | 60 | 40 | 75 | 30 | 0 | Plant response rating, Barnyardgrass [5, 14]: 50; Barnyardgrass plant response rating [5]: 0; Plant response rating, Ducksalad [6, 14]: 75; Ducksalad plant response rating [6]: 30; Plant response rating, Flood, Rice [7]: 30; Plant response rating, Rice [7, 14]: 0; Rice plant response rating [7]: 0; Plant response rating, Flood, Sedge, Umbrella [8]: 85; Plant response rating, Sedge, Umbrella [8, 13]: 75; Plant response rating, Sedge, Umbrella [8, 14]: 80; Sedge, Umbrella plant response rating [8]: 0
5 | CCn1c(-c2cc(F)cc(F)c2)ncc(C(=O)C2=C(O)CCCC2=O)c1=O [Compound 122] | 60 | 80 | 30 | 100 | 0 | 30 | 0 | 0 | 70 | 80 | 100 | 100 | 100 | 100 | 100 | 40 | 20 | 0 | 0 | 0 | Plant response rating, Foxtail, Giant [3, 11]: 30; Plant response rating, Flood, Rice [7]: 15; Plant response rating, Flood, Sedge, Umbrella [8]: 45; Plant response rating, Sedge, Umbrella [8, 13]: 20
